The record followed here is BindingDB's records for doi:10.7270/Q2DR2SWV (Vanderbilt Screening Center For Gpcrs, Ion Channels and …, 2010).

The EC50 is the concentration giving half of the maximal effect. A higher EC50 goes with a less potent agent.

This test concerns the target Metabotropic glutamate receptor 4 [Q124R] (Rattus norvegicus, UniProt P31423, Q124R). Description: PubChem AID 2185.

Chain of Metabotropic glutamate receptor 4 [Q124R] (P31423 33-912 Q124R limits assumed): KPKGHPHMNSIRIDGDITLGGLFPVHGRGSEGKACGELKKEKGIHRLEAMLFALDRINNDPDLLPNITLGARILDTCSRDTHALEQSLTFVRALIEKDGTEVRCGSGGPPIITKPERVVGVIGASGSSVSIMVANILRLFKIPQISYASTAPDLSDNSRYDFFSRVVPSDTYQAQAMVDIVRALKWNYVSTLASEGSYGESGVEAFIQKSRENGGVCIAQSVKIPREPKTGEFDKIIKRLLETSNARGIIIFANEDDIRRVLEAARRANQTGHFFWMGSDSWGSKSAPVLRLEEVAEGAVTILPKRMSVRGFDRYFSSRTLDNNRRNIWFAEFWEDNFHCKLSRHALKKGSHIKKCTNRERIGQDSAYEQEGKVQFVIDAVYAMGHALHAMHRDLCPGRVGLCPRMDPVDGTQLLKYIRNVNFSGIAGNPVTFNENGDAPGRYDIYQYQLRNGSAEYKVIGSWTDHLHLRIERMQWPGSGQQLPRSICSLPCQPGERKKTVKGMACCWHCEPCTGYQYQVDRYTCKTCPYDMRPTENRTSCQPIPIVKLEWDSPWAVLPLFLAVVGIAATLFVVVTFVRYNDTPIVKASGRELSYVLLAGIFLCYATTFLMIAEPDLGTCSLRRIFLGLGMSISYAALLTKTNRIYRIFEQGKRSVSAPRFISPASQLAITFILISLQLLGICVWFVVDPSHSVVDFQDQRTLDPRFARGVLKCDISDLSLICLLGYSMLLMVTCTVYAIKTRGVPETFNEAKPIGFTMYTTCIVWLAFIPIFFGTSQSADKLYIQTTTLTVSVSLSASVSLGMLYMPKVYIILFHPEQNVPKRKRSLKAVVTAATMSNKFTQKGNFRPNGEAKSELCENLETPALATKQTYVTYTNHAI

In turn, `O=C(Nc1ccc(-n2c(O)cc(-c3ccccc3)c2O)c(Cl)c1)c1ccccn1` [N-[3-chloro-4-(2,5-dioxo-3-phenyl-1-pyrrolidinyl)phenyl]-2-pyridinecarboxamide] yielded an EC50 of 490 nM.
Compound `O=C(Nc1ccc(Cl)c(C(F)(F)F)c1)c1ccccn1` had an EC50 of 1710 nM. This EC50 is about 3.5-fold higher than that of the compound before.
For the compound `COc1ccc(NC(=O)c2ccccn2)cc1Cl`, the EC50 was found to be 738 nM.
In turn, `O=C(Nc1ccc(-n2c(O)ccc2O)c(Cl)c1)c1ccccn1` [N-[3-chloro-4-(2,5-dioxopyrrolidin-1-yl)phenyl]pyridine-2-carboxamide] gave an EC50 of 6890 nM.
The result for `CC1(C)c2c1c(O)n(-c1ccc(NC(=O)c3ccccn3)cc1Cl)c2O` [N-[3-chloranyl-4-[(1S,5R)-6,6-dimethyl-2,4-bis(oxidanylidene)-3-azabicyclo[3.1.0]hexan-3-yl]phenyl]pyridine-2-carboxamide] reads 690 nM.
The same measure for `COc1cc(NC(=O)c2ccccn2)ccc1F`: 374 nM; for `O=C(Nc1ccc(-n2c(O)c3c(c2O)[C@H]2CC[C@@H]3O2)c(Cl)c1)c1ccccn1` [VU0405235-1]: 2290 nM; for `COc1ccc(NC(=O)c2ccccn2)cc1OC`: 2350 nM.
Turning to `COc1cc(NC(=O)c2ccccn2)ccc1C`, the 50% effective concentration (EC50) worked out at 208 nM.
The result for `O=C(Nc1ccc(F)c(C(F)(F)F)c1)c1ccccn1` reads 999 nM; that for `O=C(Nc1ccc(-n2c(O)c3c(c2O)CCCC3)c(Cl)c1)c1ccccn1` [VU0366515-1], 650 nM.
